Test results as given in patent US20260109678A1, “SUBSTITUTED PHENOTHIAZINES AS FERROPTOSIS INHIBITORS” (Universiteit Antwerpen, priority 2022, published 2026).
In brackets after ≈: the same amount, converted by molar mass. Structures can show the parent of a compound that is named as a salt.

Legend:
[1] = Fluorescence-enabled inhibited autoxidation (FENIX) assay; type: biochemical; conditions: RTA 2 μM, liposomes 1 mM; for Logkinh: FENIX assay; for kinh (10^4 M^−1s^−1) ± SD: inhibition rate constant, STY-BODIPY 1 μM, DTUN initiator, 37° C.
Experimental: Unless otherwise stated, laboratory reagent grade solvents were used. Reagents were obtained from various commercial sources and were used without any prior purification. L-α-phosphatidylcholine (Egg, Chicken), powder was purchased from Merck Life Science B.V.. DTUN and STY-BODIPY were synthesized according to methods described in Shah et al. (2019) Cell Chem. Biol. 26, 1594-1607. Fluorescence was measured using the UV/vis spectrophotometer Synergy MX, Biotek with Gen5.
In order to quantify radical trapping antioxidant activity in phospholipid bilayers to a clear bottom black-walled 96-well plate for fluorescence-base assays (Invitrogen by Thermo Fisher Scientific) was added 250 μL of a solution containing liposomes (1 mM), styrene-conjugated BODIPY (STY-BODIPY, 1 μM), and the respective radical trapping antioxidant (RTA, 2 μM). The solutions were made in larger volumes in Eppendorfs, pre-mixed and 250 μL aliquot was transferred to each well. The plate was incubated for 10 minutes at 37° C. in the BioTek SynergyMx plate reader, followed by a fast-mixing protocol for 5 minutes. The plate was ejected from the plate reader and autoxidation was initiated by the addition of a 50 μL aliquot of (E)-1,2-bis((2-methyldecan-2-yl)oxy)diazene (DTUN, 0.2 mM in EtOH/PBS 3/47, v/v), followed by another mixing protocol for 5 minutes. Data were acquired by excitation probes at 488 nm and emission was measured at 518 nm (read intervals 1.0 min). Kinetic read parameters: (i) optic position: bottom, (ii) gain: 80, (iii) bandwidth: 9.0. The results of the FENIX assay are presented in Table 2 as inhibition rate constants (kinh), logkinh and stoichiometries (n) of tested compounds.

[2] = Kinetic solubility (turbidimetric method); type: physicochemical; conditions: aqueous buffer, kinetic from dmso stock, PBS buffer pH 7.4, 2 hours at 37° C., read-out: Kin. solubility

Structure (SMILES)	Logkinh [1]	kinh (10^4 M^−1s^−1) ± SD [1]	solubility at 2 h [2] [µM]
CNCCNC(=O)c1ccc2c(c1)Sc1ccccc1N2 [CPD-033, N-(2-(methylamino)ethyl)-10H-phenothiazine-3-carboxamide dihydrochloride]	2.68 ± 0.07	1.21 ± 0.01 10^4 M^−1s^−1	
NCCNC(=O)c1ccc2c(c1)Sc1ccccc1N2 [CPD-034, N-(2-aminoethyl)-10H-phenothiazine-3-carboxamide dihydrochloride]	2.41 ± 0.13	1.23 ± 0.01 10^4 M^−1s^−1	
O=C(c1ccc2c(c1)Sc1ccccc1N2)N1CCNCC1 [CPD-035, (10H-phenothiazin-3-yl)(piperazin-1-yl)methanone dihydrochloride]	2.51 ± 0.05	1.26 ± 0.04 10^4 M^−1s^−1	
O=C(NCCN1CCNCC1)c1ccc2c(c1)Sc1ccccc1N2 [CPD-036, N-(2-(piperazin-1-yl)ethyl)-10H-phenothiazine-3-carboxamide trihydrochloride]	2.30 ± 0.09	1.24 ± 0.04 10^4 M^−1s^−1	
O=Cc1ccc2c(c1)Sc1ccccc1N2 [CPD-037, 10H-phenothiazine-3-carbaldehyde]			12.5 to 50 (≈ 2.84 to 11.4 µg/mL)
c1ccc2c(c1)Nc1ccc(CNCCN3CCOCC3)cc1S2 [CPD-038]	3.77 ± 0.16	1.03 ± 0.01 10^4 M^−1s^−1	
